Measurements as given in ChEMBL document CHEMBL4364346, “Structure optimization of a new class of PPARγ antagonists” (Bioorg Med Chem, 2019).
Calls of active or inactive are those of the source. The rule behind the calls is not given here.

Experiments:
[1] = Metabolic stability in Sprague-Dawley rat liver microsomes assessed as remaining compound at […] incubated for 60 mins; format: ADME, Microsome; conditions: read-out: Stability
[2] = Cmax in Swiss CD1 mouse at 1 mg/kg, ip measured upto 7 hrs by LC-MS analysis; format: ADME, organism-based; design: dose 1 mg/kg, route intraperitoneal; conditions: in vivo
[3] = Tmax in Swiss CD1 mouse at 1 mg/kg, ip measured upto 7 hrs by LC-MS analysis; format: ADME, organism-based; conditions: in vivo
[4] = Plasma concentration in Swiss CD1 mouse at 10 mg/kg, ip measured upto 4 hrs by LC-MS analysis; format: ADME, organism-based
[5] = AUC (0 to 4 hrs) in Swiss CD1 mouse at 10 mg/kg, ip measured upto 4 hrs by LC-MS analysis; format: ADME, organism-based; design: time < 4 hr, dose 10 mg/kg, route intraperitoneal; conditions: in vivo
[6] = molecular target: T1, Retinoic acid receptor RXR-alpha (Homo sapiens) (UniProt P19793); experiment: Agonist activity at recombinant human pFA-CMV fused RXRalpha LBD transfected in HEK293T cells assessed as RXRalpha activation at 1 uM incubated for 12 to 14 hrs by dual glo luciferase reporter gene assay; format: cell-based
T1 sequence (whole entry): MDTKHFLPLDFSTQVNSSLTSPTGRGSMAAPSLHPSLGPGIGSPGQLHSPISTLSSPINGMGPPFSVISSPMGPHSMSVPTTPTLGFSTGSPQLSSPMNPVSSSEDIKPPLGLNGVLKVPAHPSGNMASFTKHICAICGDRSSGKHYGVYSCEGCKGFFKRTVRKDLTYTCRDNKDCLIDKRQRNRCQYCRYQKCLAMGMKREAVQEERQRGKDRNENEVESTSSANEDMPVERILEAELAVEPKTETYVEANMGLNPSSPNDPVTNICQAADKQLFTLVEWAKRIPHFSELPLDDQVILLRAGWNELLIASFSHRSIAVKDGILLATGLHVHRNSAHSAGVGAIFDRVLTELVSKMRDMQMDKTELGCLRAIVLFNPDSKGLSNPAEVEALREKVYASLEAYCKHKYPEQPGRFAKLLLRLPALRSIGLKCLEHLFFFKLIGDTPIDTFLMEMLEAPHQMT

[7] = molecular target: T2, Retinoic acid receptor alpha (Homo sapiens) (UniProt P10276); experiment: Agonist activity at recombinant human pFA-CMV fused RARalpha LBD transfected in HEK293T cells assessed as RARalpha activation at 1 uM incubated for 12 to 14 hrs by dual glo luciferase reporter gene assay; format: cell-based
T2 sequence (whole entry): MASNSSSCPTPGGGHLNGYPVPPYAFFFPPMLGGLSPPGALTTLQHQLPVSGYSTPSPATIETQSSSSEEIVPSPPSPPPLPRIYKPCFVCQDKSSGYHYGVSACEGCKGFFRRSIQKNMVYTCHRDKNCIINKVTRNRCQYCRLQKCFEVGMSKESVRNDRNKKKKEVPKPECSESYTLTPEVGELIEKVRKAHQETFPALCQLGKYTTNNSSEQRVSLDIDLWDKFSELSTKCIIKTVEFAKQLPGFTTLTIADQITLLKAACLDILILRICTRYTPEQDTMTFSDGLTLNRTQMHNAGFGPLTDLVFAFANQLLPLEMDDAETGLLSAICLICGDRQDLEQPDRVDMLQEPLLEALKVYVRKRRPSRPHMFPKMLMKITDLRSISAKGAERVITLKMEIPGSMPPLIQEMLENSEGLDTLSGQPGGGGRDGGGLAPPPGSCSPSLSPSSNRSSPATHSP

[8] = molecular target: T3, Vitamin D3 receptor (Homo sapiens) (UniProt P11473); experiment: Agonist activity at recombinant human pFA-CMV fused VDR LBD transfected in HEK293T cells assessed as VDR activation at 1 uM incubated for 12 to 14 hrs by dual glo luciferase reporter gene assay; format: cell-based
T3 sequence (whole entry): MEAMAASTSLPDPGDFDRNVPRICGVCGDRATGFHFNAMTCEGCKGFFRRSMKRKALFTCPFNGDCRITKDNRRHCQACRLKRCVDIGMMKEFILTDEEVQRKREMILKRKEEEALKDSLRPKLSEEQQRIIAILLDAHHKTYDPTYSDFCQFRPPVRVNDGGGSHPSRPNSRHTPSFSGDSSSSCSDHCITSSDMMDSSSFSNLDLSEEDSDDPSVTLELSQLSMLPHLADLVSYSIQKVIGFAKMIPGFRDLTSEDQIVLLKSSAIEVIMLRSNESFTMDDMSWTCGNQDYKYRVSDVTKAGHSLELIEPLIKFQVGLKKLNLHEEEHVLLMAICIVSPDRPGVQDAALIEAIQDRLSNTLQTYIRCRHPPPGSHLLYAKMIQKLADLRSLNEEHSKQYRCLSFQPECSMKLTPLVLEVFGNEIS

[9] = molecular target: T4, Nuclear receptor subfamily 1 group I member 3 (Homo sapiens, UniProt Q14994); experiment: Agonist activity at recombinant human pFA-CMV fused CAR LBD transfected in HEK293T cells assessed as CAR activation at 1 uM incubated for 12 to 14 hrs by dual glo luciferase reporter gene assay; format: cell-based
T4 sequence (Q14994 whole entry): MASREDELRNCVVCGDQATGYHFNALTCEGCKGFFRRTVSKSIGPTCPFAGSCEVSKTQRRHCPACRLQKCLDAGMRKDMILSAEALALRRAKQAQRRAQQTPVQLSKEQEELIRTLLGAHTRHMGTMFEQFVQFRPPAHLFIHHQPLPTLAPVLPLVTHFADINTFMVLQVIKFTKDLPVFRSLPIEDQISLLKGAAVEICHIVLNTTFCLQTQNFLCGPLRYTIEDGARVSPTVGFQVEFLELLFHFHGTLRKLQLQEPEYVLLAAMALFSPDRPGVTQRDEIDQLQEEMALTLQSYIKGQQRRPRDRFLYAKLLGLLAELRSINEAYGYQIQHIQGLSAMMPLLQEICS

[10] = molecular target: T1, Retinoic acid receptor RXR-alpha (Homo sapiens); experiment: Antagonist activity at recombinant human pFA-CMV fused RXRalpha LBD transfected in HEK293T cells assessed as reduction in bexarotene-induced RXRalpha activation at 1 uM incubated for 12 to 14 hrs by dual glo luciferase reporter gene assay; format: cell-based
[11] = molecular target: T2, Retinoic acid receptor alpha (Homo sapiens); experiment: Antagonist activity at recombinant human pFA-CMV fused RARalpha LBD transfected in HEK293T cells assessed as reduction in tretinoin-induced RARalpha activation at 1 uM incubated for 12 to 14 hrs by dual glo luciferase reporter gene assay; format: cell-based
[12] = molecular target: T3, Vitamin D3 receptor (Homo sapiens); experiment: Antagonist activity at recombinant human pFA-CMV fused VDR LBD transfected in HEK293T cells assessed as calcitrol-induced VDR activation at 1 uM incubated for 12 to 14 hrs by dual glo luciferase reporter gene assay; format: cell-based
[13] = molecular target: T4, Nuclear receptor subfamily 1 group I member 3; experiment: Antagonist activity at recombinant human pFA-CMV fused CAR LBD transfected in HEK293T cells assessed as reduction in CITCO-induced CAR activation at 1 uM incubated for 12 to 14 hrs by dual glo luciferase reporter gene assay; format: cell-based

CCC/C(=C\c1cc(OCc2ccc3nc(C(F)(F)F)cc(OC)c3c2)ccc1OCCN1CCN(C)CC1)C(=O)O
remaining at 1 h [1]: 81% | Cmax [2]: 74 nM | Tmax [3]: 1 h | concentration at 4 h [4]: 59 nM | AUC(0-t) at 4 h [5]: 598 ng·h/mL | Activity [6]: inactive | Activity [7]: inactive | Activity [8]: inactive | Activity [9]: Not Active | Activity [10]: inactive | Activity [11]: inactive | Activity [12]: inactive | Activity [13]: Not Active

CCC/C(=C\c1cc(OCc2ccc3nc(C(F)(F)F)cc(OC)c3c2)ccc1OCC1CCN(C)CC1)C(=O)O
remaining at 1 h [1]: 95% | Cmax [2]: 60 nM | Tmax [3]: 1 h | concentration at 4 h [4]: 115 nM | AUC(0-t) at 4 h [5]: 650 ng·h/mL | Activity [6]: inactive | Activity [7]: inactive | Activity [8]: inactive | Activity [9]: Active | Activity [10]: inactive | Activity [11]: inactive | Activity [12]: inactive | Activity [13]: Not Active
